Results on ten compounds are retold here after ChEMBL document CHEMBL1201862, “PubChem BioAssay data set” (2004).

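48-hour exposure; five concentrations; linearly interpolated endpoints. GI50 is the concentration that inhibits growth by half.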 Active and inactive are the calls of the source. Rule as the data show it: active = GI50 up to about 1.1 µM and inactive = higher.

What all share (assay): inhibition of tumour cell growth, NCI panel, 48 h
For assay [1], the system named is CAKI-1.
For assay [2], the system named is CCRF-CEM.
The subject of assay [3] is DU-145.
For assay [4], the system named is HCC 2998.
For assay [5], the system named is HT-29.
Assay [6] has as its system Hs-578T.
Assay [7] deals with K562.
In assay [8] the test system is MCF7.
The subject of assay [9] is MDA-MB-231.
In assay [10] the test system is MDA-MB-435.
The subject of assay [11] is NCI-H23.
The subject of assay [12] is NCI-H460.
Assay [13] relates to OVCAR-5.
Assay [14] concerns SF-295.
In assay [15] the test system is SK-MEL-2.
Assay [16] deals with SR.
The test system of assay [17] is SW-620.
Assay [18] concerns T47D.
Assay [19] concerns U-251.

In the case of `CC(=O)O/C(=C1\C[C@H]2[C@@H]3CC=C4C[C@@H](OC(C)=O)CC[C@]4(C)[C@H]3CC[C@]2(C)C1=O)C(F)(F)F`, the GI50 in assay [1] was 9.71 µM (inactive); in [2], 1.95 µM (inactive); in [3], 9.95 µM (inactive); in assay [4] it was 6.31 µM (inactive); in assay [5], 10.1 µM (inactive); in assay [6], 7 µM (inactive). For the same compound, the GI50 in assay [7] is 0.977 µM (active); in assay [8], 5.86 µM (inactive); in [9] it was 10.4 µM (inactive); in assay [10], 7.85 µM (inactive); in assay [11], 6.85 µM (inactive); in [12], 4.7 µM (inactive). Moreover, the GI50 in [13] is 29.4 µM (inactive); in assay [14], 16.2 µM (inactive); in assay [15], 7.62 µM (inactive); in assay [16], 2.88 µM (inactive); in assay [17], 5.61 µM (inactive); in assay [18], 7.4 µM (inactive). Besides, the GI50 in assay [19] is 5.43 µM (inactive).
For the compound `O=C(NNC(=O)c1ccccc1S)c1ccccc1S` [BIS(THIOSALICYL)HYDRAZIDE], the GI50 is 6.93 µM (inactive) in assay [1]; 1.24 µM (inactive) in [2]; 20.6 µM (inactive) in assay [3]; 5.96 µM (inactive) in [4]; 8.47 µM (inactive) in assay [5]; 45 µM (inactive) in assay [6]. In addition, the GI50 in assay [7] is 14.6 µM (inactive); in assay [8] it was 10 µM (inactive); in assay [9], > 25 µM (inactive); in assay [10], 14.6 µM (inactive); in [11], 11.1 µM (inactive); in assay [12], 9.29 µM (inactive). Also, the GI50 in [13] is 12.4 µM (inactive); in [14] it was 10.3 µM (inactive); in [15], 43.9 µM (inactive); in assay [16], 13.5 µM (inactive); in assay [17], 11.6 µM (inactive); in assay [18], 10.8 µM (inactive). Moreover, in assay [19], the GI50 was 15.1 µM (inactive).
With `CCOC(=O)CC(=O)Nc1cccc2sc3ncccc3c(=O)c12`, the GI50 in assay [1] was 27.9 µM (inactive); in [2], 10.8 µM (inactive); in assay [3], 84.9 µM (inactive); in assay [4], 25.9 µM (inactive); in assay [5], 38.8 µM (inactive); in [6], 19.1 µM (inactive). Also, the GI50 was 20.6 µM (inactive) in [7]; 0.57 µM (active) in assay [8]; 60.8 µM (inactive) in [9]; 44.7 µM (inactive) in assay [10]; 32 µM (inactive) in assay [11]; 19.5 µM (inactive) in [12]. Besides, the GI50 in assay [13] is 20.3 µM (inactive); in assay [14] it was 43.5 µM (inactive); in assay [15], 34.3 µM (inactive); in assay [16], 33.3 µM (inactive); in assay [17] it was > 100 µM (inactive); in assay [18] it was 3.95 µM (inactive). Moreover, the GI50 in assay [19] was 32.6 µM (inactive).
As to `Nc1nc(-c2cccnc2)cc(-c2cc(-c3cccnc3)nc(N)n2)n1`, the GI50 in assay [1] is > 100 µM (inactive); in assay [2] it was 75.2 µM (inactive); in [3] it was > 100 µM (inactive); in assay [4], > 100 µM (inactive); in assay [5], > 100 µM (inactive); in assay [6], > 100 µM (inactive). Besides, the GI50 was > 100 µM (inactive) in [7]; > 100 µM (inactive) in [8]; > 100 µM (inactive) in [9]; 50.1 µM (inactive) in assay [10]; > 100 µM (inactive) in [11]; > 100 µM (inactive) in assay [12]. Also, the GI50 was > 100 µM (inactive) in assay [13]; > 100 µM (inactive) in assay [14]; > 100 µM (inactive) in assay [15]; 55.8 µM (inactive) in [16]; > 100 µM (inactive) in [17]; > 100 µM (inactive) in assay [18]. Also, in [19], the GI50 was > 100 µM (inactive).
Take `CCOC(OCC)C(CCc1ccccc1)c1c(N)nc(N)[nH]c1=O` (stereo not given): the GI50 was 34.9 µM (inactive) in assay [1]; 53.6 µM (inactive) in assay [2]; 83.9 µM (inactive) in assay [3]; 26.1 µM (inactive) in assay [4]; 55.1 µM (inactive) in assay [5]; > 100 µM (inactive) in [6]. Further, the GI50 was 24.7 µM (inactive) in [7]; 33.1 µM (inactive) in assay [8]; > 100 µM (inactive) in [9]; 32.4 µM (inactive) in assay [10]; 79.8 µM (inactive) in assay [11]; 56.8 µM (inactive) in assay [12]. Moreover, the GI50 in assay [13] is 13.5 µM (inactive); in assay [14], 53.1 µM (inactive); in assay [15], 53 µM (inactive); in assay [16], 32.4 µM (inactive); in assay [17], 78.7 µM (inactive); in [18], 68.7 µM (inactive). Also, in assay [19], the GI50 is 81.1 µM (inactive).
As to `CCS(=O)(=O)CCn1c(=O)c2c(ncn2C)n(C)c1=O`, the GI50 in assay [1], in assay [2], in assay [3], in [4], in [5] and in [6] was > 100 µM (inactive) throughout. The GI50 in assay [7], in assay [8], in [9], in [10], in [11] and in assay [12] was > 100 µM (inactive) each time. The GI50 in [13], in assay [14], in assay [15], in assay [16], in assay [17] and in assay [18] was > 100 µM (inactive) in each case. Besides, the GI50 in assay [19] was > 100 µM (inactive).
On to `CC(=O)c1c(O)nnc(-c2ccc(Cl)cc2)c1-c1ccc(Cl)cc1`, for which the GI50 in assay [1] is 31.8 µM (inactive); in [2], 45.7 µM (inactive); in assay [3], 54.8 µM (inactive); in [4], 61.8 µM (inactive); in [5], 40.5 µM (inactive); in assay [6], 53.1 µM (inactive). For the same compound, the GI50 in [7] was 30.4 µM (inactive); in assay [8], 32.1 µM (inactive); in assay [9] it was 21.2 µM (inactive); in [10], 29.9 µM (inactive); in [11] it was 69.3 µM (inactive); in [12], 33 µM (inactive). In addition, the GI50 in assay [13] is > 100 µM (inactive); in assay [14], 46.1 µM (inactive); in assay [15], 25.1 µM (inactive); in assay [16], 27.9 µM (inactive); in assay [17], 62.5 µM (inactive); in assay [18] it was 31.5 µM (inactive). Besides, in assay [19], the GI50 was 51.9 µM (inactive).
Consider `Nc1cc(C2CCCc3c2[nH]c2ccccc32)ccc1O` (stereo not given), for which the GI50 in assay [1] is 25.2 µM (inactive); in assay [2] it was 0.76 µM (active); in assay [3], 26 µM (inactive); in [4] it was 64.7 µM (inactive); in assay [5], 23.4 µM (inactive); in assay [6] it was 69.8 µM (inactive). In addition, the GI50 in assay [7] is 6.56 µM (inactive); in [8], 24.8 µM (inactive); in assay [9], 84.5 µM (inactive); in [10], 12.3 µM (inactive); in assay [11], 36.5 µM (inactive); in [12], > 100 µM (inactive). The GI50 in assay [13] was 24.1 µM (inactive); in [14] it was 14.4 µM (inactive); in assay [15] it was 31.9 µM (inactive); in assay [16], 4.48 µM (inactive); in assay [17] it was 23.6 µM (inactive); in [18], 14.3 µM (inactive). The GI50 in [19] was 48.2 µM (inactive).
As for `COc1ccc2cc(NC(=O)N/N=C\c3ccc([N+](=O)[O-])cc3)ccc2c1`, the GI50 is 43.6 µM (inactive) in [1]; > 100 µM (inactive) in [2]; > 100 µM (inactive) in assay [3]; 12.9 µM (inactive) in [4]; 33.5 µM (inactive) in [5]; 42.5 µM (inactive) in assay [6]. The GI50 in assay [7] was 80.4 µM (inactive); in assay [8], 29.9 µM (inactive); in assay [9], 37.4 µM (inactive); in [10] it was 69 µM (inactive); in [11], 22.9 µM (inactive); in assay [12], 29.4 µM (inactive). Further, the GI50 in [13] is 45.9 µM (inactive); in assay [14] it was 25.9 µM (inactive); in [15], 60.3 µM (inactive); in assay [16], > 100 µM (inactive); in assay [17] it was > 100 µM (inactive); in assay [18], 49.1 µM (inactive). For the same compound, in assay [19], the GI50 was 29.9 µM (inactive).
As to `C=C1[C@H](OCC(C)C)[C@@H](O)[C@@H](OC(=O)c2cccnc2)C(C)(C)/C=C/[C@H](C)[C@H](OC(C)=O)[C@@]2(O)C[C@@](C)(OC(C)=O)[C@H](OC(=O)c3ccccc3)[C@@H]2[C@H]1OC(C)=O`, the GI50 in assay [1] is 0.488 µM (active); in assay [2], 0.133 µM (active); in [3] it was 1.91 µM (inactive); in assay [4], 0.19 µM (active); in [5], 0.0662 µM (active); in assay [6] it was 0.0895 µM (active). For the same compound, the GI50 in assay [7] is 0.0585 µM (active); in assay [8], 1.8 µM (inactive); in assay [9], > 2.54 µM (inactive); in [10], 0.167 µM (active); in [11], 1.95 µM (inactive); in [12] it was 0.0126 µM (active). Further, the GI50 in assay [13] is > 2.43 µM (inactive); in assay [14] it was 0.371 µM (active); in [15], > 2.13 µM (inactive); in [16], 1.16 µM (inactive); in [17], 0.502 µM (active); in assay [18] it was > 2.96 µM (inactive). Moreover, the GI50 in assay [19] is 1.34 µM (inactive).
